# Reference: patent publication US8124793B2, “Derivatives of ethylene methanedisulfonate as cancer chemotherapeutic agents” (priority 2007, dated 2012)
# Assays:
# UACC-62 = experiment: NCI screen, growth of human tumor cells: Melanoma UACC-62; type: cell-based; conditions: UACC-62 (Melanoma), 10^−4 molar
# Procedure, shortened: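 At least 60 data points describe each compound tested by NCI. Cancer type, molar concentration in the screen and percent growth make up the recorded data.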
# human cancer cells = experiment: NCI screen summary over the cancers tested (negative growth of human cancer cells); type: cell-based; conditions: 10^−4 M conc.; cancers with negative growth / cancers tested
# Method: (§1) In the NCI screening process, each compound was tested and described by a minimum of 60 data points. The test data include, but are not limited to the type of cancer, the molar concentration used in the screen, and the percent growth of the cancer. In some cases, NMR and elemental analysis were used for structural assignment.
# The derivatives in the tables are grouped using the same category as in the tables 1-6.
# NCI-H226 = experiment: NCI screen, growth of human tumor cells: Non-Small Cell Lung NCI-H226; type: cell-based
# Method: as §1
# BT-549 = experiment: NCI screen, growth of human tumor cells: Breast Cancer BT-549; type: cell-based
# Method: as §1
# HOP-18 = experiment: NCI screen, growth of human tumor cells: Non-Small Cell Lung HOP-18; type: cell-based
# Method: as §1
# EKVX = experiment: NCI screen, growth of human tumor cells: Non-Small Cell Lung EKVX; type: cell-based; conditions: EKVX
# Method: as §1
compound,measurement,setting,value
"O=S1(=O)OCCOS(=O)(=O)C1I [NSC 648309, ethylene iodomethanedisulfonate]",percent of growth of human tumor cells,UACC-62,17%
same,melting point,,144 to 160 °C
same,Percentage of cancers showing negative growth cancers tested,human cancer cells,10^−4 M conc. = 0/2 = 0%
same,percent of growth of human tumor cells,"NCI-H226; NCI-H226 (Non-Small Cell Lung), 10^−4 molar",20%
"O=S1(=O)OCCOS(=O)(=O)C1(F)Br [NSC 665943, ethylene fluorobromomethanedisulfonate]",% Growth,"BT-549; BT-549, 10^−4 molar",12%
same,% Growth,"BT-549; BT-549, 10^−5 molar",28%
same,% Growth,"BT-549; BT-549, 10^−6 molar",52%
same,% Growth,"BT-549; BT-549, 10^−7 molar",42%
same,% Growth,"BT-549; BT-549, 10^−8 molar",44%
same,melting point,,82 to 90 °C
same,Percentage of cancers showing negative growth cancers tested,human cancer cells,10^−4 M conc. = 0/1 = 0%
"O=S1(=O)OCCOS(=O)(=O)C1(Br)Br [NSC 648304, ethylene dibromomethanedisulfonate]",% Growth,"HOP-18; HOP-18, 10^−4 molar",53%
same,% Growth,"HOP-18; HOP-18, 10^−5 molar",75%
same,% Growth,"HOP-18; HOP-18, 10^−6 molar",52%
same,% Growth,"HOP-18; HOP-18, 10^−7 molar",14%
same,% Growth,"HOP-18; HOP-18, 10^−8 molar",42%
same,melting point,,214 to 220 °C
same,Percentage of cancers showing negative growth cancers tested,human cancer cells,10^−4 M conc. = 1/3 = 33%
same,% Growth,"NCI-H226; NCI-H226, 10^−4 molar",−1%
same,% Growth,"NCI-H226; NCI-H226, 10^−5 molar",49%
same,% Growth,"NCI-H226; NCI-H226, 10^−6 molar",47%
same,% Growth,"NCI-H226; NCI-H226, 10^−7 molar",54%
same,% Growth,"NCI-H226; NCI-H226, 10^−8 molar",62%
same,% Growth,EKVX; 10^−4 molar,51%
same,% Growth,EKVX; 10^−5 molar,57%
same,% Growth,EKVX; 10^−6 molar,58%
same,% Growth,EKVX; 10^−7 molar,62%
same,% Growth,EKVX; 10^−8 molar,58%
"O=S1(=O)OCCOS(=O)(=O)C1Cl [MWC 91-6, ethylene chloromethanedisulfonate]",melting point,,85 to 88 °C
